From ChEMBL document CHEMBL6083219, “Rationally designed febuxostat-based hydroxamic acid and its pH-Responsive nanoformulation elicits anti-tumor activity” (Eur J Med Chem, 2024)
Calls of active or inactive are those of the source. No cut-off for these calls is given here.

Experiments:
HL-60 [1] = experiment: Downregulation of HDAC6 expression level in human HL-60 cells at 0.5 to 2 uM by Western blotting analysis; type: functional, cell-based; conditions: dose 0.5-2 µM
Rattus norvegicus [2] = experiment: Anti-hyperuricemic activity against potassium oxonate-induced hyperuricemia Wistar rat model assessed as decrease in number of basophils at 5 mg/kg measured after 14 days; type: functional, organism-based; conditions: time 14.0 day
Rattus norvegicus [3] = experiment: Anti-hyperuricemic activity against potassium oxonate-induced hyperuricemia Wistar rat model assessed as increase in hemoglobin levels at 5 mg/kg measured after 14 days; type: functional, organism-based; conditions: time 14.0 day
Rattus norvegicus [4] = experiment: Anti-hyperuricemic activity against potassium oxonate-induced hyperuricemia Wistar rat model assessed as effect on complete blood count at 2.5 mg/kg measured after 14 days; type: functional, organism-based; conditions: time 14.0 day
Rattus norvegicus [5] = experiment: Anti-hyperuricemic activity against potassium oxonate-induced hyperuricemia Wistar rat model assessed as decrease in blood urea level at 2.5 mg/kg measured after 14 days; type: functional, organism-based; conditions: time 14.0 day
MOLT-4 = experiment: Cytotoxicity against human MOLT-4 cells incubated for 1 day by MTT assay; type: functional, cell-based; conditions: MOLT-4, 24 h
Mitochondrial membrane = experiment: Induction of mitochondrial membrane potential loss in human HL-60 cells at 0.5 to 2 uM by rhodamine 123 staining based flow cytometry analysis; conditions: dose 0.5-2 µM
Rattus norvegicus [6] = experiment: Anti-hyperuricemic activity against potassium oxonate-induced hyperuricemia Wistar rat model assessed as improvement in renal condition by measuring normal glomeruli size at 10 mg/kg measured after 14 days by H and E staining based assay; type: functional, organism-based; conditions: time 14.0 day
Rattus norvegicus [7] = experiment: Anti-hyperuricemic activity against potassium oxonate-induced hyperuricemia Wistar rat model assessed as decrease in number of eosinophils at 5 mg/kg measured after 14 days; type: functional, organism-based; conditions: time 14.0 day
Rattus norvegicus [8] = experiment: Anti-hyperuricemic activity against potassium oxonate-induced hyperuricemia Wistar rat model assessed as improvement in renal condition at 2.5 mg/kg measured after 14 days by H and E staining based assay; type: functional, organism-based; conditions: time 14.0 day
MDA-MB-231 [9] = experiment: Downregulation of HDAC3 expression level in human MDA-MB-231 cells at 0.5 to 2 uM by Western blotting analysis; type: functional, cell-based; conditions: dose 0.5-2 µM
HL-60 [10] = experiment: Induction of autophagy in human HL-60 cells assessed as upregulation of LC3-II expression level at 0.5 to 2 uM by Western blotting assay; type: functional, cell-based; conditions: dose 0.5-2 µM
HL-60 [11] = experiment: Induction of autophagy in human HL-60 cells at 0.5 to 2 uM by acridine orange staining based microscopic assay; type: functional, cell-based; conditions: dose 0.5-2 µM
MDA-MB-231 [12] = experiment: cells; conditions: Homo sapiens, MDA-MB-231, 48 h
Description: Cytotoxicity against human MDA-MB-231 cells incubated for 48 hrs by MTT assay

Rattus norvegicus [13] = experiment: Anti-hyperuricemic activity against potassium oxonate-induced hyperuricemia Wistar rat model assessed as improvement in renal condition by measuring decrease in tubular cell swelling at 10 mg/kg measured after 14 days by H and E staining based assay; type: functional, organism-based; conditions: time 14.0 day

With `Cc1nc(-c2ccc(OCC(C)C)c(C#N)c2)sc1C(=O)NCCCCCCC(=O)NO` the Activity (HL-60 [1]) was “Active; Activity More Potent Than Saha”, the Activity (Rattus norvegicus [2]) was “Active” and the Activity (Rattus norvegicus [3]) was “Active”. For the same compound, the Activity (Rattus norvegicus [4]) was “inactive”, the Activity (Rattus norvegicus [5]) was “inactive” and the IC50 (MOLT-4) was 1.19 µM. The Activity (Mitochondrial membrane) was “Active”, the Activity (Rattus norvegicus [6]) was “Active” and the Activity (Rattus norvegicus [7]) was “Active”. For the same compound, the Activity (Rattus norvegicus [8]) was “inactive”, the Activity (MDA-MB-231 [9]) was “Active” and the Activity (HL-60 [10]) was “Active”. For the same compound, the Activity (HL-60 [11]) was “Active”, the IC50 (MDA-MB-231 [12]) was 2.94 µM and the Activity (Rattus norvegicus [13]) was “Active”.
